{"source": "patent US12303724B2", "about": "“Non-adult human dosing of anti-CD30 antibody-drug conjugates for treatment of hematological or lymphoid cancer” (priority 2016, dated 2025)", "assay_type_in_all_cases": "in vivo, human", "key": {"[1]": {"test": "Phase 1/2 pediatric study of brentuximab vedotin: serum pharmacokinetics", "settings": "pediatric patients, 1.4 or 1.8 mg/kg body weight every 3 weeks, AUC versus age (FIG. 1A)", "from_the_text": "This study had assessment of pharmacokinetics of BV in pediatric patients as one of its objectives.\nThe goal of phase 1 portion of the study was to establish safety and define MTD (maximum tolerated dose) of brentuximab vedotin in pediatric hematological malignancies with high expression of CD30, both HL and ALCL were included in the phase 1 study population. The phase 2 study was designed to administer brentuximab vedotin at the RP2D (recommended phase II dose) determined as the MTD [Maximum Tolerated Dose] in the phase 1 portion of the study.\nBlood samples for determining BV levels from the serum were obtained at several time points during treatment with BV at the dose of 1.4 or 1.8 mg/kg body weight every 3 weeks. These doses were within the range of doses that were previously determined to be safe and efficacious in the adult population in earlier studies (Younes, et al., N. Engl J Med 363; 19, Nov. 2010).\nThe pharmacokinetic analyses described here included pharmacokinetic data from 30 pediatric patients for the initial analyses."}, "[2]": {"test_system": "relapsed or refractory (r/r) Hodgkin Lymphoma (HL) or systemic anaplastic large-cell lymphoma (sALCL)", "test": "Example 2: BSA-based BV monotherapy in pediatric patients", "description": "Pediatric study subjects are administered BV (administered IV infusion, once every three weeks (21 days)) at a dose of 71.5 mg/m^2. Each 21-day treatment cycle is composed of 1 day study drug treatment, followed by a monitoring period of 20 days. Patients may receive BV for up to 16 cycles. Objective response rates (ORR; complete remission (CR)+ partial remission (PR)) are determined by an independent review facility (IRF) using PET, CT, MRI and, clinical assessment according to the International Working Group (IWG) Revised Response Criteria for Malignant Lymphoma. Time to progression (from the first dose of study treatment to the date of first documented progressive disease), time to response (from the first dose of study treatment to the date of first documentation of a complete or partial response), duration of response (from the date of first documentation of a response to the date of progressive disease), event-free survival (from first dose until treatment failure), progression-free survival (PFS; from the first dose of study treatment to disease progression or death), and overall survival (OS; from the first dose of study treatment to date of death) are also evaluated. Patients are followed for progression-free survival (PFS) and overall survival (OS) every 12 weeks for 12 months after the end of treatment (EOT) visit. […]"}, "[3]": {"test_system": "CD30-positive cutaneous t-cell lymphomas", "test": "Example 5: BSA-based BV versus methotrexate or bexarotene in pediatric patients", "settings": "BV 71.5 mg/m^2 IV every three weeks, monotherapy, up to 16 cycles", "description": "Pediatric (non adult human) patients with CD30-positive cutaneous t-cell lymphomas (Primary Cutaneous Anaplastic Large Cell Lymphoma, Mycosis Fungoides, Cutaneous T-Cell Lymphoma) are provided. Study subjects are randomly assigned to one of the following treatments: 1) BV (administered IV, once every three weeks (21 days)) at a dose of 71.5 mg/m^2 as monotherapy for up to a total of 16 cycles; or 2) physician's choice of methotrexate or bexarotene (methotrexate is administered orally (5 to 50 mg) once weekly; dose adjustment is guided by patient response and toxicity or bexarotene is administered orally (300 mg/m^2) once daily with meals).\nThe proportion of patients achieving an objective response (ORR; complete remission (CR)+partial remission (PR)) that lasts at least 4 months is evaluated. The proportion of patients achieving complete response (CR) and progression-free survival (PFS) are also evaluated."}}}
{"substance": "brentuximab vedotin", "values": [{"measurement": "systemic exposure to BV as measured by the Area Under the concentration-time Curve (AUC)", "setting": "[1]", "result": "decrease in age from about 18 years led to decrease systemic exposure to BV"}, {"measurement": "CR, PR, PFS, OS relative to treatments without BV", "setting": "[2]; 71.5 mg/m^2 IV once every three weeks, up to 16 cycles", "result": "one or more of improved CR, PR, PFS, or OS"}, {"measurement": "CR, PR, PFS, OS of BSA-adjusted doses relative to weight-adjusted dose", "setting": "[2]; 71.5 mg/m^2 versus BV at a weight-adjusted dose", "result": "one or more of improved CR, PR, PFS or OS"}, {"measurement": "ORR, CR, PFS relative to methotrexate or bexarotene", "setting": "[3]", "result": "one or more of improved ORR, CR or PFS"}]}
